We go through one substance from patent US4438104A, “Endorphins having placental or pancreatic origin” (Endorphin, Inc., priority 1982, dated 1984).

One assay relates to Balb/C mice. The assay can be described thus: Delay in tail-flick in mice from a standardized heat injury. It counts as in vivo. On the procedure: Using p-endorphin as prepared in Example 2 tests of the delay in tail-flick in mice from a standardized heat injury were conducted under our direction and control as follows: Inbred mice (in this case Balb/C males weighing 20 to 25 gms) were held in a special body holder in cotton and a standardized "heat-run" or lamp was held a standardized distance away from the base of the tail which was painted black with india ink to increase the amount of energy it absorbs. On the average, 3.5 seconds of this heat is enough to cause these mice to flick their tail in a vigorous fashion. This end-point is unmistakable. The standard deviation of 50 determinations of this kind is approximately 0.7 seconds. Therefore, the normal range of large numbers of these mice with multiple determinations would be about 2.2 to 4.8 seconds.
The data set forth below in Table 1 illustrate the amount of time for the onset of tail flicking by mice tested at various times after the injection of […] of p-endorphin (P-EP).

The test system of the next assay is mice. Particulars: stated as known characteristic; cited from earlier work.

Consider “beta-endorphin (YGGFMTSEKSQTPLVTLFKNAIIKNAYKKGE; Beta-endorphin; UniProt P01189 237-267, looked up) [endogenous opioid peptide hormone, 61 to 91 portion of beta lipotropin; standard]”, for which the delay in tail-flick result in the assay on Balb/C mice (mice) is on record as “more than 10 seconds”. In addition, in the assay with Balb/C mice (same tail-flick effect as 30 μg P-EP preparation), the “amount required to obtain the same in vivo effect” value was “about 0.8 nanamoles per mouse”. Moreover, in the assay with mice, the Staub tail result is listed as “characteristic”.
